Patent US4477664A, “Novel 1-(4-piperidiniobenzyl)-2,3-dioxopiperazine derivatives or acid addition salts thereof” (Toyama Chemical Co., Ltd., priority 1979, dated 1984)
≈ marks a conversion by molar mass, not a printed value. Read-outs that look alike come from different tables or passages of the source.

What was measured:
P-388 ascites cells [1] = assay: Effect on P-388 leukemia (ii): subcutaneous inoculation, mean tumor weight; assay type: in vivo, BDF1-strain mice; details: oral, once a day for 7 days, 11th day
Protocol: (ii) P-388 ascites cells (1×10^6 cells/head) were inoculated subcutaneously at the right armpit into BDF1 -strain mice (male, 7 weeks old, each group consisting of 8 mice), and after 24 hours, the oral administration of a test drug was started, and effected once a day for 7 days. The effect thereof was judged from the mean weight of the tumor at the 11th day. The test drug was used in the form of a suspension or solution in a 0.3% carboxymethyl cellulose-containing saline solution or a dimethylsulfoxide-propylene glycolphosphate buffer (1:2:1) mixture. T/C was calculated in the same manner as in above b(ii).

B-16 melanoma cells = assay: Effect on B-16 melanoma: subcutaneous inoculation, mean tumor weight; assay type: in vivo, BDF1-strain mice
Protocol: B-16 melanoma cells (1×10^6 cells/head) were inoculated subcutaneously at the right armpit region into BDF1 -strain mice (male, 7 weeks old, each group consisting of 8 mice), and after 24 hours, the oral administration or subcutaneous administration at the […] […] The test drug was used in the form of a suspension or solution in a 0.3% carboxymethyl cellulose-containing saline solution or dimethylsulfoxide-propylene glycol (1:1) mixture. T/C was calculated in the same manner as in above b(ii).

L-1210 ascites cells [2] = assay: Effect on L-1210 leukemia (i): intraperitoneal inoculation, mean survival days; assay type: in vivo, BDF1-strain mice
Protocol: (§1) (i) L-1210 ascites cells (1×10^5 cells/head) were inoculated intraperitoneally into BDF1 -strain mice (female, 6 weeks old, each group consisting of 4 mice), and after 24 hours, the intraperitoneal administration of a test drug was started and effected once a day. The effect thereof was judged from the mean survival days. The test drug was used in the form of a solution or suspension in a saline solution or a 0.3% carboxymethyl cellulose-containing saline solution.
T/C was calculated in the same manner as in above b (i).

[3] = tested on: Ehrlich ascites carcinoma cells; assay: Effect on Ehrlich carcinoma (iii): subcutaneous inoculation at right armpit, mean tumor weight; assay type: in vivo, ICR-strain mice; details: once a day for 7 days, 14th day
Protocol: (iii) Ehrlich ascites carcinoma cells (4×10^6 cells/head) were inoculated subcutaneously at the right armpit region into ICR-strain mice (female, 7 weeks old, each group consisting of 6 or 7 mice), and after 24 hours, the oral administration or subcutaneous administration at the dorsal region of a test drug was started, and effected once a day for 7 days. The effect thereof was judged from the mean weight of the tumor on the 14th day. The test drug was used in the form of a solution or suspension in a saline solution or a 0.3% carboxymethyl cellulose-containing saline solution.
T/C was calculated in the same manner as in above (ii).

HeLa S3 cells = assay: MIC value against HeLa S3 cells (microplate method); assay type: cell-based; details: Homo sapiens, 96 h, 2×10^4 cells/ml, 4 days, Giemsa staining
Description: (§2) a. MIC value against HeLa S3 cells and Ehrlich cells (microplate method) Number of cells: 2×10^4 cells/ml Culture medium: Eagle's MEM+20% calf embryonic serum Culture time: 4 days Judgement: Giemsa staining

Acute toxicity = details: mouse, in vivo, ip
Description: The test drugs were used in the form of a solution or suspension in a saline solution or a 0.3% carboxymethyl cellulose-containing saline solution.

[4] = tested on: Sarcoma 180 ascites cells; assay: Effect on Sarcoma 180 carcinoma: intraperitoneal inoculation, mean survival days; assay type: in vivo, ICR-strain mice; details: once a day for 7 days
Protocol: Sarcoma 180 ascites cells (1×10^6 cells/head) were inocualted intraperitoneally into ICR-strain mice (female, 6 weeks old, each group consisting of 4 or 5 mice), and after 24 hours, the intraperitoneal administration of a test drug was started, and effected once a day for 7 days. The effect thereof was judged from the mean survival days. The test drug was used in the form of a solution or suspension in a saline solution or a 0.3% carboxymethyl cellulose-containing saline solution. [formula]

Ehrlich cells = assay: MIC value against Ehrlich cells (microplate method); assay type: cell-based; details: 96 h, 2×10^4 cells/ml, 4 days, Giemsa staining
Description: as §2

[5] = tested on: Ehrlich ascites carcinoma cells; assay: Effect on Ehrlich carcinoma (ii): subcutaneous inoculation at inguinal region, mean tumor weight; assay type: in vivo, ICR-strain mice; details: 250 mg/kg, orally, once a day for 5 days, judgement day 15
Protocol: (ii) Ehrlich ascites carcinoma cells (4×10^6 cells/head) were inoculated subcutaneously at the inguinal region into ICR-strain mice (female, 6 to 7 weeks old, each group consisting of 5 or 4 mice), and after 24 hours, the intraperitaneal or oral administration of a test drug was started and effected once a day for 5 days. The effect thereof was judged from the mean weight of tumor on the 13th or 15th day, respectively.
The test drug was used in the form of a solution or suspension in a saline solution or a 0.3% carboxymethyl cellulose-containing saline solution. [formula]

P-388 ascites cells [6] = assay: Effect on P-388 leukemia (i): intraperitoneal inoculation, mean survival days; assay type: in vivo, BDF1-strain mice; details: 100 mg/kg, once a day for 7 days
Protocol: as §1, with “P-388” for “L-1210”, “(1×10^6” for “(1×10^5”, “day for 7 days.” for “day.”, “solution. T/C was calculated in the same manner as in above b(i).” for “solution.”

[7] = tested on: Ehrlich ascites carcinoma cells; assay: Effect on Ehrlich carcinoma (i): intraperitoneal inoculation, mean survival days; assay type: in vivo, ICR-strain mice; details: Mus musculus, ip, read-out: T/C (mean survival days)
Protocol: (i) Ehrlich ascites carcinoma cells (1×10^6 cells/head) were inoculated intraperitoneally into ICR-strain mice (female, 6 to 7 weeks old, each group consisting of 5 or 4 mice), and after 24 hours, the […] The effect thereof was judged from the mean survival days.
The test drugs were used in the form of a solution or suspension in a saline solution or a 0.3% carboxymethyl cellulose-containing saline solution. [formula]

[8] = tested on: Lewis lung carcinoma cells; assay: Effect on Lewis lung carcinoma: subcutaneous inoculation, average tumor weight; assay type: in vivo, BDF1-strain mice; details: oral, once a day for 7 days, 21st day
Protocol: Lewis lung carcinoma cells (1×10^6 cells/head) were inoculated subcutaneously at the right armpit region into BDF1 -strain mice (male, 6 weeks old, each group consisting of 5 mice) and after 24 hours, the oral administration of a test drug was started and effected once a day for 7 days. The effect thereof was judged from the average weight of tumor on the 21st day. The test drug was used in the form of a suspension in a 0.3% carboxymethyl cellulose-containing saline solution. T/C was calculated in the same manner as in above b(ii).

L-1210 ascites cells [9] = assay: Effect on L-1210 leukemia (ii): subcutaneous inoculation, mean survival days and tumor weight; assay type: in vivo, BDF1-strain mice; details: oral; for T/C Tumor Weight: 9th day
Protocol: (ii) L-1210 ascites cells (1×10^6 cells/head) were inoculated subcutaneously into BDF1 -strain mice (male, 6 weeks old, each group consisting of 4 mice), and after 24 hours, the oral administration of a test drug was started, and effected once a day for […]. The effect thereof was judged from the mean survival days and the weight of the tumor on the 9th day.
The test drug was used in the form of a suspension in a 0.3% carboxymethyl cellulose-containing saline solution. T/C was calculated in the same manner as in above b(i) and b(ii).

[10] = 100 mg/kg, orally, 7 administrations, 18th day
[11] = 100* mg/kg, orally, 7 administrations, 19th day, in dimethylsulfoxide-propylene glycol (1:1)

Structure (SMILES)	T/C (mean tumor weight) (B-16 melanoma cells; [10]) [%]	T/C (mean survival days) (L-1210 ascites cells [2]; 50 mg/kg, 9 administrations) [%]	T/C (mean tumor weight) ([3]; 50 mg/kg, orally) [%]	T/C (mean tumor weight) ([3]; 50 mg/kg, subcutaneously) [%]	T/C (mean tumor weight) ([3]; 100 mg/kg, orally) [%]	MIC (HeLa S3 cells) [µg/mL]	LD50 at 168 h (Acute toxicity) [mg/kg]	T/C (mean survival days) ([4]; 10 mg/kg) [%]	Survival Ratio in Days Shown in Parenthesis ([4]; 10 mg/kg, 32 days)	T/C (mean survival days) ([4]; 20 mg/kg) [%]	Survival Ratio in Days Shown in Parenthesis ([4]; 20 mg/kg, 32 days)	MIC (Ehrlich cells) [µg/mL]	T/C (mean tumor weight) [5] [%]	T/C (mean survival days) (L-1210 ascites cells [2]; 200 mg/kg, 3 administrations) [%]	response vs control in vivo at 100 mg/kg ([7]; 168 h, once a day for 7 days) [%]	T/C (mean tumor weight) (P-388 ascites cells [1]; 200 mg/kg) [%]	T/C (average tumor weight) ([8]; 100 mg/kg) [%]	T/C (average tumor weight) ([8]; 200 mg/kg) [%]	T/C (mean tumor weight) (B-16 melanoma cells; [11]) [%]	also measured
Nc1ccc(Nc2ccc(CN3CCN(Cc4ccccc4)C(=O)C3=O)cc2)nc1 [Compound 4]	58	164.3	82	15	65	< 0.05	> 300	> 221	4/5	> 221	4/5	< 0.05	56.9	–	–	–	–	–	–	T/C (mean tumor weight) (P-388 ascites cells [1]; 50 mg/kg): 79%; T/C (mean tumor weight) (B-16 melanoma cells; 25 mg/kg, subcutaneously, 7 administrations, 19th day): 38%; T/C (mean tumor weight) (B-16 melanoma cells; 50 mg/kg, orally, 9 administrations, 21st day): 60%; T/C (mean tumor weight) (B-16 melanoma cells; 50* mg/kg, orally, 7 administrations, 19th day, in dimethylsulfoxide-propylene glycol (1:1)): 71%; T/C (mean survival days) (L-1210 ascites cells [2]; 100 mg/kg, 3 administrations): 161.9%
CCCCCCN1CCN(Cc2ccc(Nc3ncccn3)cc2)C(=O)C1=O [Compound 7]	–	181	–	–	–	0.39 to 0.78 (≈ 1.02 to 2.04 µM)	> 1000	–	–	–	–	0.39 to 0.78 (≈ 1.02 to 2.04 µM)	–	159.5	> 207	–	–	–	–	T/C (mean survival days) (P-388 ascites cells [6]): 166.3%; T/C (mean survival days) (L-1210 ascites cells [2]; 100 mg/kg, 7 administrations): 168.7%; response vs control in vivo at 50 mg/kg ([7]; 168 h, 50 mg/kg, once a day for 7 days): > 187%; T/C (mean survival days) ([4]; 100 mg/kg): > 183.1%; Survival Ratio in Days Shown in Parenthesis ([4]; 100 mg/kg, 35 days): 3/4
O=C1C(=O)N(Cc2ccc(Nc3ncccn3)cc2)CCN1Cc1ccccc1 [Compound 13]	62	240.5	–	54	48	0.1 (≈ 0.258 µM)	> 1000	–	–	–	–	0.1 (≈ 0.258 µM)	32.4	229	> 177	49	73.2	67.1	40	T/C (mean tumor weight) (P-388 ascites cells [1]; 60* mg/kg, solution in dimethylsulfoxide-propylene glycol-phosphate buffer (1:2:1)): 25%; T/C (mean tumor weight) (B-16 melanoma cells; 200 mg/kg, orally, 9 administrations, 21st day): 23%; T/C (mean tumor weight) (B-16 melanoma cells; 50* mg/kg, subcutaneously, 7 administrations, 19th day, in dimethylsulfoxide-propylene glycol (1:1)): 88%; T/C (mean survival days) (L-1210 ascites cells [2]; 100 mg/kg, 6 administrations): 150%; T/C (mean tumor weight) ([3]; 200 mg/kg, orally): 26%; T/C (mean survival days) ([4]; 50 mg/kg): > 204%; Survival Ratio in Days Shown in Parenthesis ([4]; 50 mg/kg, 32 days): 4/5; T/C Survival Days (L-1210 ascites cells [9]; 50 mg/kg): 120.0%; T/C Tumor Weight (L-1210 ascites cells [9]; 50 mg/kg): 156.6%; T/C Survival Days (L-1210 ascites cells [9]; 100 mg/kg): 194.4%; T/C Tumor Weight (L-1210 ascites cells [9]; 100 mg/kg): 2.6%; T/C Survival Days (L-1210 ascites cells [9]; 250 mg/kg): 127.8%; T/C Tumor Weight (L-1210 ascites cells [9]; 250 mg/kg): 0%
Nc1ccc(Nc2ccc(CN3CCN(Cc4ccccc4)C(=O)C3=O)cc2)nc1Cl [Compound 41]	88	–	78	54	–	< 0.05	> 200	> 193	1/5	> 218	4/5	< 0.05	–	–	–	67	65.9	43.4	43	T/C (mean tumor weight) (B-16 melanoma cells; 50 mg/kg, subcutaneously, 3 administrations, 19th day): 37%; T/C (mean survival days) (L-1210 ascites cells [2]; 20 mg/kg, 7 administrations): 236%; response vs control in vivo at 50 mg/kg ([7]; 96 h, 50* mg/kg, once a day for 4 days): 195%
